Laboratory results from patent publication US9586962B2, “Disubstituted octahydropyrrolo [3,4-C] pyrroles as orexin receptor modulators” (Janssen Pharmaceutica NV, priority 2011, dated 2017).

Each molecule was assayed against human orexin 2 receptor (Homo sapiens (Human), UniProt O43614) (assay: Human orexin 2 receptor Ca2+ mobilization assay (FLIPR, PFSK cells, orexin B 100 nM)). Conditions: modified Cheng-Prusoff correction, read-out: OR 2 Kb.
Type: cell-based
Method: Human Orexin 2 Receptor Ca^2+ Mobilization Assay
Cells were seeded on to 96-well Packard viewplates at a density of 50,000 cells/well and incubated overnight at 37° C., 5% CO2. The cells were dye-loaded with 4 μM Ca^2+ dye Fluo-3AM in serum-free DMEM/F-12 with 2.5 mM probenecid and incubated at 37° C., 5% CO2 for one hour. Cells were pre-incubated with compounds (diluted in DMEM/F-12) for 30 minutes before agonist (orexin B, 100 nM) stimulation. Ligand-induced Ca^2+ release was measured using a Fluorometric Imaging Plate Reader (FLIPR, Molecular Devices, Sunnyvale, Calif.). Functional responses were measured as peak fluorescence intensity minus basal. The concentration of agonist that produced a half-maximal response is represented by the EC50 value. Antagonistic potency values were converted to apparent pKB values using a modified Cheng-Prusoff correction. Apparent pKB=−log IC50/1+[conc agonist/EC50]. Data are expressed as mean±S.E.M, the designation of NT means not tested.

Chain of human orexin 2 receptor (O43614 whole entry): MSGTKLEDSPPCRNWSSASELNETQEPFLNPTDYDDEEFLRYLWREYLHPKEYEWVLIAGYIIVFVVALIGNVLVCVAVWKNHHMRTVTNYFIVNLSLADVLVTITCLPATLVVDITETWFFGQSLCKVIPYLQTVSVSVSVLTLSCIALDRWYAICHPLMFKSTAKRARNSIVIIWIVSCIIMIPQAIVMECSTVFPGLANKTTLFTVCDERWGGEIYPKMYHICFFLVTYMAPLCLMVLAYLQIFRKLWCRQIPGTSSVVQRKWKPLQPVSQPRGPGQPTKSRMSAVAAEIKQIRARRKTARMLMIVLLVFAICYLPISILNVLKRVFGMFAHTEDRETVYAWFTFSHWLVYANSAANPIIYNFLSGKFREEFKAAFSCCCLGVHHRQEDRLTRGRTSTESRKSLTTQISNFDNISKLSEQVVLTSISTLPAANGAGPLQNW

| Kb | SMILES |
| --- | --- |
| 16 nM | CN(C)c1nc(N2CC3CN(C(=O)c4ccc(F)cc4-n4nccn4)CC3C2)cc(C(F)(F)F)n1 (stereo not drawn) [Example 111, [5-(2-Dimethylamino-6-trifluoromethyl-pyrimidin-4-yl)-hexahydro-pyrrolo[3,4-c]pyrrol-2-yl]-(4-fluoro-2-[1,2,3]triazol-2-yl-phenyl)-methanone] |
| 32 nM | Cc1ccc(-c2ncccn2)c(C(=O)N2CC3CN(c4nc(C)cnc4C)CC3C2)c1 (stereo not drawn) [Example 103, 2-(3,6-Dimethylpyrazin-2-yl)-5-[(5-methyl-2-pyrimidin-2-ylphenyl)carbonyl]octahydropyrrolo[3,4-c]pyrrole] |
| 32 nM | Cc1cnc(C)c(N2CC3CN(C(=O)c4cc(F)ccc4-c4ncccn4)CC3C2)n1 (stereo not drawn) [Example 212, [5-(3,6-Dimethyl-pyrazin-2-yl)-hexahydro-pyrrolo[3,4-c]pyrrol-2-yl]-(5-fluoro-2-pyrimidin-2-yl-phenyl)-methanone] |
| 126 nM | Cc1cc(N2CC3CN(C(=O)c4ccccc4-c4ccccc4)CC3C2)nc2ccccc12 (stereo not drawn) [Example 178, 2-[5-(Biphenyl-2-ylcarbonyl)hexahydropyrrolo[3,4-c]pyrrol-2(1H)-yl]-4-methylquinoline] |
| 25 nM | COc1cc(OC)nc(N2CC3CN(C(=O)c4ccccc4-n4nccn4)CC3C2)n1 (stereo not drawn) [Example 84, 2-(4,6-Dimethoxypyrimidin-2-yl)-5-{[2-(2H-1,2,3-triazol-2-yl)phenyl]carbonyl}octahydropyrrolo[3,4-c]pyrrole] |
| 13 nM | Cc1cc(C)nc(N2CC3CN(C(=O)c4ccccc4-c4nc(C)no4)CC3C2)n1 (stereo not drawn) [Example 306, 2-(4,6-Dimethylpyrimidin-2-yl)-5-{[2-(3-methyl-1,2,4-oxadiazol-5-yl)phenyl]carbonyl}octahydropyrrolo[3,4-c]pyrrole] |
| 32 nM | Cc1cc(C)nc(N2CC3CN(C(=O)c4sccc4-c4ccccc4)CC3C2)n1 (stereo not drawn) [Example 12, 2-(4,6-Dimethylpyrimidin-2-yl)-5-[(3-phenylthiophen-2-yl)carbonyl]octahydropyrrolo[3,4-c]pyrrole] |
| 631 nM | COc1ccc(C(=O)N2CC3CN(c4nccc(-c5ccccc5)n4)CC3C2)c(OC)c1 (stereo not drawn) [Example 167, 2-[(2,4-Dimethoxyphenyl)carbonyl]-5-(4-phenylpyrimidin-2-yl)octahydropyrrolo[3,4-c]pyrrole] |
| 13 nM | CN(C)c1nc(N2CC3CN(C(=O)c4c(F)cccc4-c4ncccn4)CC3C2)cc(C(F)(F)F)n1 (stereo not drawn) [Example 116, 4-{5-[(2-Fluoro-6-pyrimidin-2-ylphenyl)carbonyl]hexahydropyrrolo[3,4-c]pyrrol-2(1H)-yl}-N,N-dimethyl-6-(trifluoromethyl)pyrimidin-2-amine] |
| 9 nM | O=C(c1cccc(F)c1-c1ncccn1)N1CC2CN(c3cnc4cc(F)c(F)cc4n3)CC2C1 (stereo not drawn) [Example 387, (5-(6,7-Difluoroquinoxalin-2-yl)hexahydropyrrolo[3,4-c]pyrrol-2(1H)-yl)(3-fluoro-2-(pyrimidin-2-yl)phenyl)methanone] |
| 25 nM | Cc1cc(C)nc(N2CC3CN(C(=O)c4ccc(F)c5ccccc45)CC3C2)n1 (stereo not drawn) [Example 90, 2-(4,6-Dimethylpyrimidin-2-yl)-5-[(4-fluoronaphthalen-1-yl)carbonyl]octahydro-pyrrolo[3,4-c]pyrrole] |
| 501 nM | COc1ccc(C(=O)N2CC3CN(c4nc5ccc(Cl)cc5s4)CC3C2)c(OC)c1 (stereo not drawn) [Example 163, 6-Chloro-2-{5-[(2,4-dimethoxyphenyl)carbonyl]hexahydropyrrolo[3,4-c]pyrrol-2(1H)-yl}-1,3-benzothiazole] |
| 3 nM | Cc1cc(C)nc(N2CC3CN(C(=O)c4cccc(F)c4-c4ccccn4)CC3C2)n1 (stereo not drawn) [Example 367, (5-(4,6-Dimethylpyrimidin-2-yl)hexahydropyrrolo[3,4-c]pyrrol-2(1H)-yl)(3-fluoro-2-(pyridin-2-yl)phenyl)methanone] |
| 2 nM | COc1ccc(C(=O)N2CC3CN(c4ncc(F)c(C)n4)CC3C2)c(-n2nccn2)c1 (stereo not drawn) [Example 377, 2-(5-Fluoro-4-methylpyrimidin-2-yl)-5-{[4-methoxy-2-(2H-1,2,3-triazol-2-yl)phenyl]carbonyl}octahydropyrrolo[3,4-c]pyrrole] |
| 10 nM | Cc1cc(N2CC3CN(C(=O)c4c(F)cccc4-n4nccn4)CC3C2)nc(C(F)(F)F)n1 (stereo not drawn) [Example 98, 2-{[2-Fluoro-6-(2H-1,2,3-triazol-2-yl)phenyl]carbonyl}-5-[6-methyl-2-(trifluoromethyl)pyrimidin-4-yl]octahydropyrrolo[3,4-c]pyrrole] |
| 10 nM | Cc1nc(N2CC3CN(C(=O)c4ccccc4-c4ncn(C)n4)CC3C2)ncc1Cl (stereo not drawn) [Example 321, 2-(5-Chloro-4-methylpyrimidin-2-yl)-5-{[2-(1-methyl-1H-1,2,4-triazol-3-yl)phenyl]carbonyl}octahydropyrrolo[3,4-c]pyrrole] |
| 14 nM | COc1ccc(C(=O)N2CC3CN(c4cnc5cc(F)c(F)cc5n4)CC3C2)c(-n2nccn2)c1 (stereo not drawn) [Example 389, (5-(6,7-Difluoroquinoxalin-2-yl)hexahydropyrrolo[3,4-c]pyrrol-2(1H)-yl)(4-methoxy-2-(2H-1,2,3-triazol-2-yl)phenyl)methanone] |

| Kb | SMILES |
| --- | --- |
| 32 nM | CCOc1ccc2ccccc2c1C(=O)N1CC2CN(c3cnc4ccccc4n3)CC2C1 (stereo not drawn) [Example 145, 2-{5-[(2-Ethoxynaphthalen-1-yl)carbonyl]hexahydropyrrolo[3,4-c]pyrrol-2(1H)-yl}quinoxaline] |
| 40 nM | COc1cc(OC)nc(N2CC3CN(C(=O)c4ccccc4-c4cccs4)CC3C2)n1 (stereo not drawn) [Example 138, 2-(4,6-Dimethoxypyrimidin-2-yl)-5-[(2-thiophen-2-ylphenyl)carbonyl]octahydro pyrrolo[3,4-c]pyrrole] |
| 8 nM | Cc1cncc(N2CC3CN(C(=O)c4ccc(F)cc4-n4nccn4)CC3C2)n1 (stereo not drawn) [Example 158, 2-{[4-Fluoro-2-(2H-1,2,3-triazol-2-yl)phenyl]carbonyl}-5-(6-methylpyrazin-2-yl)octahydropyrrolo[3,4-c]pyrrole] |
| 31 nM | O=C(c1ccccc1-c1cccs1)N1CC2CN(c3cnc4ccccc4n3)CC2C1 (stereo not drawn) [Example 19, 2-{5-[(2-Thiophen-2-ylphenyl)carbonyl]hexahydropyrrolo[3,4-c]pyrrol-2(1H)-yl}quinoxaline] |
| 5 nM | Cc1cc(C)nc(N2CC3CN(C(=O)c4ccccc4-c4ncn(C)n4)CC3C2)n1 (stereo not drawn) [Example 308, 2-(4,6-Dimethylpyrimidin-2-yl)-5-{[2-(1-methyl-1H-1,2,4-triazol-3-yl)phenyl]carbonyl}octahydropyrrolo[3,4-c]pyrrole] |
| 4 nM | Cc1cc(C)nc(N2CC3CN(C(=O)c4cccc5c4-c4ccccc4C5)CC3C2)n1 (stereo not drawn) [Example 326, 2-(4,6-Dimethylpyrimidin-2-yl)-5-(9H-fluoren-4-ylcarbonyl)octahydropyrrolo[3,4-c]pyrrole] |
| 32 nM | Cc1ccnc(N2CC3CN(C(=O)c4ccccc4-c4cccs4)CC3C2)n1 (stereo not drawn) [Example 32, 2-(4-Methylpyrimidin-2-yl)-5-[(2-thiophen-2-ylphenyl)carbonyl]octahydro-pyrrolo[3,4-c]pyrrole] |
| 7 nM | Cc1cc(C)nc(N2CC3CN(C(=O)c4ccc(F)cc4-c4ncccn4)CC3C2)n1 (stereo not drawn) [Example 231, (5-(4,6-Dimethylpyrimidin-2-yl)hexahydropyrrolo[3,4-c]pyrrol-2(1H)-yl)(4-fluoro-2-(pyrimidin-2-yl)phenyl)methanone] |
| 7 nM | Cc1nc(N2CC3CN(C(=O)c4ccccc4-n4nccn4)CC3C2)ncc1F (stereo not drawn) [Example 290, 2-(5-Fluoro-4-methylpyrimidin-2-yl)-5-{[2-(2H-1,2,3-triazol-2-yl)phenyl]carbonyl}octahydropyrrolo[3,4-c]pyrrole] |
| 8 nM | COc1ccnc(N2CC3CN(C(=O)c4ccc(F)cc4-n4nccn4)CC3C2)n1 (stereo not drawn) [Example 159, 2-{[4-Fluoro-2-(2H-1,2,3-triazol-2-yl)phenyl]carbonyl}-5-(4-methoxypyrimidin-2-yl)octahydropyrrolo[3,4-c]pyrrole] |
| 50 nM | Cc1ccnc(N2CC3CN(C(=O)c4ccccc4-c4cccs4)CC3C2)c1 (stereo not drawn) [Example 136, 2-(4-Methylpyridin-2-yl)-5-[(2-thiophen-2-ylphenyl)carbonyl]octahydropyrrolo[3,4-c]pyrrole] |
| 4 nM | Cc1cc(C)nc(N2CC3CN(C(=O)c4cccc(F)c4-c4ncccc4F)CC3C2)n1 (stereo not drawn) [Example 375, (5-(4,6-Dimethylpyrimidin-2-yl)hexahydropyrrolo[3,4-c]pyrrol-2(1H)-yl)(3-fluoro-2-(3-fluoropyridin-2-yl)phenyl)methanone] |
| 16 nM | CCOc1ccc2ccccc2c1C(=O)N1CC2CN(c3nc(C)cc(C)n3)CC2C1 (stereo not drawn) [Example 77, 2-(4,6-Dimethylpyrimidin-2-yl)-5-[(2-ethoxynaphthalen-1-yl)carbonyl]octahydro-pyrrolo[3,4-c]pyrrole] |
| 16 nM | COc1cc(OC)nc(N2CC3CN(C(=O)c4c(F)cccc4-c4ncccn4)CC3C2)n1 (stereo not drawn) [Example 68, 2-(4,6-Dimethoxypyrimidin-2-yl)-5-[(2-fluoro-6-pyrimidin-2-ylphenyl)carbonyl]octahydropyrrolo[3,4-c]pyrrole] |
| 16 nM | Cc1cc(N2CC3CN(C(=O)c4ccccc4-n4nccn4)CC3C2)nc(C(F)(F)F)n1 (stereo not drawn) [Example 97, 2-[6-Methyl-2-(trifluoromethyl)pyrimidin-4-yl]-5-{[2-(2H-1,2,3-triazol-2-yl)phenyl]carbonyl}octahydropyrrolo[3,4-c]pyrrole] |
| 3 nM | Cc1noc(-c2ccccc2C(=O)N2CC3CN(c4nc(C)c(Cl)c(C)n4)CC3C2)n1 (stereo not drawn) [Example 318, 2-(5-Chloro-4,6-dimethylpyrimidin-2-yl)-5-{[2-(3-methyl-1,2,4-oxadiazol-5-yl)phenyl]carbonyl}octahydropyrrolo[3,4-c]pyrrole] |
